In the assay the test system is maximum electroshock spasm (MES) in male mice (NMRI). The assay can be described thus: MES test (maximum electroshock spasm), inhibition of the extensor spasm. It is filed as in vivo. The following applies: mice; for ED50: oral, 1 hour after administration, read-out: ED 50 in the MES test.
The mark [1] stands for this setting: Mus musculus, po, 50 mg/kg p.o., 1 hr., read-out: protective action after 1 hr. (MES test).
Where [2] appears, read: Mus musculus, po, 100 mg/kg p.o., 1 hr., % of animals protected 100% against the extensor spasm, read-out: protective action after 1 hr. (MES test).

For `COC1=CC(=O)O[C@H]1[C@H](OC)c1ccccc1F` (relative stereo) [Example 123, threo-4-methoxy-5-[methoxy-(2-fluorophenyl)-methyl]-2(5H)-furanone], under setting [1], the responders at 50 mg/kg was determined as 100%.

Turning to `COC1=CC(=O)O[C@H]1[C@H](O)c1ccc(C(F)(F)F)cc1` (relative stereo) [Example 73, threo-4-methoxy-5-(4-trifluoromethylphenylhydroxymethyl)-2(5H)-furanone], the responders at 100 mg/kg under setting [2] is 60%.

Take `COC1=CC(=O)O[C@H]1[C@H](O)c1c(F)cccc1Cl` (relative stereo) [Example 102, threo-5-(2-chloro-6-fluorophenylhydroxymethyl)-4-methoxy-2(5H)-furanone]: the responders at 100 mg/kg under setting [2] is 62.5%.

Consider `COC1=CC(=O)O[C@H]1[C@H](O)c1ccc(Cl)cc1` (relative stereo) [Example 67, threo-5-(4-chlorophenylhydroxymethyl)-4-methoxy-2(5H)-furanone], for which the responders at 100 mg/kg under setting [2] stood at 75%. Also, the ED50 (Mus musculus) was found to be 73.5 mg/kg.

Regarding `COC1=CC(=O)O[C@H]1[C@H](O)c1ccc(Br)cc1` (relative stereo) [Example 100, threo-5-(4-bromophenylhydroxymethyl)-4-methoxy-2(5H)-furanone], the responders at 100 mg/kg under setting [2] stood at 100%. Also, the ED50 (Mus musculus) is 67 mg/kg.

As for `COC1=CC(=O)O[C@H]1[C@H](OC)c1ccccc1Br` (relative stereo) [Example 124, threo-4-methoxy-5-[methoxy-(2-bromophenyl)-methyl]-2(5H)-furanone], the responders at 50 mg/kg under setting [1] came out at 100%.

In the case of “threo-4-methoxy-5-(α-hydroxy-β-phenylethyl)-2(5H)-furanone [Example 104]”, under “100 mg/kg p.o., 1 hr., % of animals protected 100% against the extensor spasm”, the “protective action after 1 hr. (MES test)” value stood at 37.5%.

For the molecule `COC1=CC(=O)O[C@H]1[C@H](O)c1cccc(C(F)(F)F)c1` (relative stereo) [Example 72, threo-4-methoxy-5-(3-trifluoromethylphenylhydroxymethyl)-2(5H)-furanone], under setting [2], the responders at 100 mg/kg was 80%.

Regarding “threo-5-[1'-ethoxypropoxy-(2-chlorophenyl)-methyl]-4-methoxy-2-(5H)-furanone [Example 122]”, under “50 mg/kg p.o., 1 hr.”, the “protective action after 1 hr. (MES test)” value is 100%.

Consider `CCOC1=CC(=O)O[C@H]1[C@H](OC)c1ccc(Cl)cc1Cl` (relative stereo) [Example 106, threo-4-Ethoxy-5-[methoxy-(2,4-dichlorophenyl)-methyl]-2(5H)-furanone], for which the responders at 100 mg/kg under setting [2] is 30%.

For the molecule `COCC(OC)O[C@H](c1ccccc1Cl)[C@@H]1OC(=O)C=C1OC` (stereo partly drawn) [Example 121, threo-5-[1',2'-dimethoxyethoxy-(2-chlorophenyl)-methyl]-4-methoxy-2(5H)-furanone], the responders at 50 mg/kg under setting [1] was 70%.

`COC1=CC(=O)O[C@H]1[C@H](O)c1cccc(F)c1` (relative stereo) [Example 96, threo-5-(3-fluorophenylhydroxymethyl)-4-methoxy-2-(5H)-furanone]: the responders at 100 mg/kg under setting [2] was 62.5%. In addition, the ED50 (Mus musculus) came out at 74 mg/kg.

`COC1=CC(=O)O[C@H]1[C@H](O)CCc1ccccc1` (relative stereo) [Example 105, threo-4-methoxy-5-(α-hydroxy-γ-phenylpropyl)-2(5H)-furanone]: the responders at 100 mg/kg under setting [2] was found to be 12.5%.

Take `COCO[C@H](c1ccccc1)[C@@H]1OC(=O)C=C1OC` (relative stereo) [Example 113, threo-4-methoxy-5-[methoxymethoxy-(phenyl)-methyl]-2(5H)-furanone]: the responders at 100 mg/kg under setting [2] is 100%.

On to `COC1=CC(=O)O[C@H]1[C@H](O)c1ccc(Br)cc1Cl` (relative stereo) [Example 88, threo-5-[(4-bromo-2-chlorophenyl)-hydroxymethyl]-4-methoxy-2(5H)-furanone], for which the responders at 100 mg/kg under setting [2] was 80%.

`COC1=CC(=O)O[C@H]1[C@H](O)c1ccccc1[N+](=O)[O-]` (relative stereo) [Example 74, threo-4-methoxy-5-(2-nitrophenylhydroxymethyl)-2(5H)-furanone]: the responders at 100 mg/kg under setting [2] was 100%.

`COC1=CC(=O)O[C@H]1[C@H](O)c1ccccc1Br` (relative stereo) [Example 68, threo-5-(2-bromophenylhydroxymethyl)-4-methoxy-2(5H)-furanone]: the responders at 100 mg/kg under setting [2] was determined as 100%. For the same molecule, the ED50 (Mus musculus) came out at 23.5 mg/kg.

`CCOC1=CC(=O)O[C@H]1[C@H](O)c1ccccc1Cl` (relative stereo) [Example 66, threo-5-(2-chlorophenylhydroxymethyl)-4-ethoxy-2(5H)-furanone]: under setting [2], the responders at 100 mg/kg was 100%.

Take `COC1=CC(=O)O[C@H]1[C@H](O)c1cccc(Cl)c1` (relative stereo) [Example 98, threo-5-(3-chlorophenylhydroxymethyl)-4-methoxy-2(5H)-furanone]: under setting [2], the responders at 100 mg/kg amounted to 25%. Also, under “Mus musculus”, the ED50 was 84.5 mg/kg.

As for `COC1=CC(=O)O[C@H]1[C@H](OC)c1ccc(Cl)cc1Cl` (relative stereo) [Example 111, threo-4-methoxy-5-[methoxy-(2,4-dichlorophenyl)-methyl]-2(5H)-furanone], the responders at 100 mg/kg under setting [2] was found to be 100%.

`COC1=CC(=O)O[C@H]1[C@H](O)c1cc(C(F)(F)F)ccc1Cl` (relative stereo) [Example 86]: the responders at 50 mg/kg under setting [1] is 100%.

In the case of `COC1=CC(=O)O[C@H]1[C@H](OC)c1ccccc1Cl` (relative stereo) [Example 110, threo-4-methoxy-5-[methoxy-(2-chlorophenyl)-methyl]-2(5H)-furanone], the responders at 100 mg/kg under setting [2] stood at 100%. For the same molecule, for the setting “Mus musculus”, the ED50 was determined as 27.5 mg/kg.

For the molecule `COC1=CC(=O)O[C@H]1[C@H](O)c1ccccc1F` (relative stereo) [Example 70, threo-5-(2-fluorophenylhydroxymethyl)-4-methoxy-2(5H)-furanone], the responders at 100 mg/kg under setting [2] was found to be 100%. Besides, the ED50 (Mus musculus) was determined as 22 mg/kg.

`COC1=CC(=O)O[C@H]1[C@H](O)c1ccc(Cl)cc1C(F)(F)F` (relative stereo) [Example 87, threo-5-[(4-chloro-2-trifluoromethylphenyl)-hydroxymethyl]-4-methoxy-2(5H)-furanone]: the responders at 100 mg/kg under setting [2] was 40%.

In the case of `COC1=CC(=O)O[C@H]1[C@H](OC)c1ccccc1` (relative stereo) [Example 109, threo-4-methoxy-5-[methoxy-(phenyl)-methyl]-2(5H)-furanone], under setting [2], the responders at 100 mg/kg was 40%.

`COC1=CC(=O)O[C@H]1[C@H](O)c1ccccc1C(F)(F)F` (relative stereo) [Example 71, threo-4-methoxy-5-(2-trifluoromethylphenylhydroxymethyl)-2-(5H)-furanone]: under setting [2], the responders at 100 mg/kg came to 100%.

Consider `CCOC1=CC(=O)O[C@H]1[C@H](O)c1cc(Cl)ccc1Cl` (relative stereo) [Example 82, threo-5-(2,5-dichlorophenylhydroxymethyl)-4-ethoxy-2(5H)-furanone], for which, where the note is “Mus musculus, po, 150 mg/kg p.o., 1 hr., read-out: protective action after 1 hr. (MES test)”, the responders at 150 mg/kg came out at 90%.

`COCO[C@H](c1ccccc1F)[C@@H]1OC(=O)C=C1OC` (relative stereo) [Example 115, threo-4-methoxy-5-[methoxymethoxy-(2-fluorophenyl)-methyl]2(5H)-furanone]: the responders at 100 mg/kg under setting [2] is 100%.

With `CCOC1=CC(=O)O[C@H]1[C@H](O)c1ccc(Cl)cc1Cl` (relative stereo) [Example 80, threo-5-(2,4-dichlorophenylhydroxymethyl)-4-ethoxy-2(5H)-furanone], the responders at 100 mg/kg under setting [2] was found to be 90%.

Turning to `COCO[C@H](c1ccccc1Br)[C@@H]1OC(=O)C=C1OC` (relative stereo) [Example 118, threo-4-methoxy-5-[methoxymethoxy-(2-bromophenyl)-methyl]-2(5H)-furanone], the responders at 100 mg/kg under setting [2] was determined as 100%.

Consider `COCO[C@H](c1ccccc1Cl)[C@@H]1OC(=O)C=C1OC` (relative stereo) [Example 107, threo-4-Methoxy-5-[methoxymethoxy-(2-chlorophenyl)-methyl]-2(5H)-furanone], for which, under setting [2], the responders at 100 mg/kg was found to be 100%. Further, for the setting “Mus musculus”, the ED50 was 24.5 mg/kg.

As for `CCCOC1=CC(=O)O[C@H]1[C@H](O)c1ccccc1Cl` (relative stereo) [Example 99, threo-5-(2-chlorophenylhydroxymethyl)-4-propoxy-2-(5H)-furanone], the responders at 100 mg/kg under setting [2] was 90%.

On to `COCCOCO[C@H](c1ccccc1Cl)[C@@H]1OC(=O)C=C1OC` (relative stereo) [Example 108, threo-4-Methoxy-5-[methoxyethoxymethoxy-(2-chlorophenyl)-methyl]-2(5H)-furanone], for which the responders at 100 mg/kg under setting [2] was found to be 70%.

As to `COC1=CC(=O)O[C@H]1[C@H](O)c1cc(Cl)cc(Cl)c1` (relative stereo) [Example 84, threo-5-(3,5-dichlorophenylhydroxymethyl)-4-methoxy-2(5H)-furanone], under setting [2], the responders at 100 mg/kg amounted to 70%.

For `COC1=CC(=O)O[C@H]1[C@H](O)c1ccccc1C` (relative stereo) [Example 93, threo-4-methoxy-5-(2-methylphenylhydroxymethyl)-2(5H)-furanone], under setting [2], the responders at 100 mg/kg worked out at 37.5%.

Consider `COC1=CC(=O)O[C@H]1[C@H](O)c1cccc(Br)c1` (relative stereo) [Example 69, threo-5-(3-bromophenylhydroxymethyl)-4-methoxy-2(5H)-furanone], for which the responders at 100 mg/kg under setting [2] turned out to be 70%. Further, the ED50 (Mus musculus) was 93 mg/kg.

As to `COC1=CC(=O)O[C@H]1[C@H](O)c1ccc(Cl)c(Cl)c1` (relative stereo) [Example 83, threo-5-(3,4-dichlorophenylhydroxymethyl)-4-methoxy-2(5H)-furanone], the responders at 100 mg/kg under setting [2] is 50%.

For the molecule `COCO[C@H](c1ccccc1C)[C@@H]1OC(=O)C=C1OC` (relative stereo) [Example 116, threo-4-methoxy-5-[methoxymethoxy-(2-methylphenyl)-methyl]-2(5H)-furanone], under setting [2], the responders at 100 mg/kg was determined as 70%.

These data come from patent publication US4855320A, “5-arylalkyl-4-alkoxy-2(5H)-furanones, intermediates and processes for the preparation thereof and medicaments containing them” (Dr. Willmar Schwabe GmbH & Company, priority 1986, dated 1989).
